Test results reported in the supplement of paper PMC10307832.

Experiments:
Test in all cases: relative viability (nuclei count vs DMSO), 5 days (fraction); higher = more cells survive
[1] = compound: OCc1c[nH]c2ccccc12 [Indole-3-carbinol]
Method in brief: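 Following overnight incubation at 37 °C, lung cancer cell lines in 1536-well plates were pinned with five library-drug doses (not always all listed) in √10 steps on vehicle-anchored plates. The cells then spent 5 days without medium change before a combined fix, permeabilisation and Hoechst stain, 4× imaging and MetaXpress nuclear counts. Viability is the treated-to-vehicle ratio of nuclei, taken as the median across plates. Only plates with control CV below 25% and at least one doubling passed.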

[2] = compound: OCc1c[nH]c2ccccc12 [Indole-3-carbinol] + CC1(C)CCC(c2ccc(Cl)cc2)=C(CN2CCN(c3ccc(C(=O)NS(=O)(=O)c4ccc(N[C@H](CCN5CCOCC5)CSc5ccccc5)c(S(=O)(=O)C(F)(F)F)c4)cc3)CC2)C1 [Navitoclax] (partner 0.5 µM)
Method in brief: (§1)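 Relative viability was taken as the ratio of nuclei in treated wells to nuclei in vehicle wells. Lung cancer cell lines in 1536-well plates received compounds by pin tool one day after seeding, either one drug alone or a fixed anchor-drug dose plus five library-drug doses (not always all listed) in √10 steps. Nuclei were counted on 4× images after 5 days of treatment, and values are medians of duplicate plates.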

[3] = compound: OCc1c[nH]c2ccccc12 [Indole-3-carbinol] + CS(=O)(=O)CCNCc1ccc(-c2ccc3ncnc(Nc4ccc(OCc5cccc(F)c5)c(Cl)c4)c3c2)o1 [Lapatinib] (partner 2 µM)
Method in brief: as §1

[4] = compound: OCc1c[nH]c2ccccc12 [Indole-3-carbinol] + Cc1nc(Nc2ncc(C(=O)Nc3c(C)cccc3Cl)s2)cc(N2CCN(CCO)CC2)n1 [Dasatinib] (partner 0.075 µM)
Method in brief: as §1

[5] = compound: OCc1c[nH]c2ccccc12 [Indole-3-carbinol] + O=C(CCCCCCC(=O)Nc1ccccc1)NO [Vorinostat] (partner 1 µM)
Method in brief: as §1

Cell Line | relative viability ([1]; 0.253 µM) | relative viability ([1]; 0.8 µM) | relative viability ([1]; 2.53 µM) | relative viability ([1]; 8 µM) | relative viability ([2]; first compound 0.253 µM) | relative viability ([2]; first compound 0.8 µM) | relative viability ([2]; first compound 2.53 µM) | relative viability ([2]; first compound 8 µM) | relative viability ([3]; first compound 0.253 µM) | relative viability ([3]; first compound 0.8 µM) | relative viability ([3]; first compound 2.53 µM) | relative viability ([3]; first compound 8 µM) | relative viability ([4]; first compound 0.253 µM) | relative viability ([4]; first compound 0.8 µM) | relative viability ([4]; first compound 2.53 µM) | relative viability ([4]; first compound 8 µM) | relative viability ([5]; first compound 0.253 µM) | relative viability ([5]; first compound 0.8 µM) | relative viability ([5]; first compound 2.53 µM) | relative viability ([5]; first compound 8 µM)
NCI-H322M | 0.84 | 0.973 | 0.859 | 0.866 | 1.37 | 1.26 | 1.14 | 1.18 | 0.601 | 0.537 | 0.575 | 0.549 | 0.239 | 0.245 | 0.237 | 0.255 | 0.713 | 0.8 | 0.902 | 0.779
NCI-H1651 | 0.994 | 0.97 | 1.05 | 0.945 | 1.03 | 1.07 | 1.05 | 0.925 | 0.619 | 0.69 | 0.921 | 0.704 | 0.412 | 0.387 | 0.443 | 0.368 | 0.517 | 0.55 | 0.616 | 0.646
HARA | 0.96 | 0.894 | 1.06 | 0.889 | 1.18 | 1.17 | 1.14 | 1.16 | 0.932 | 0.737 | 0.711 | 0.654 | 0.289 | 0.296 | 0.323 | 0.198 | 0.515 | 0.627 | 0.505 | 0.511
H3255 | 0.924 | 0.953 | 0.948 | 0.96 | 0.643 | 0.523 | 0.54 | 0.467 | 0.245 | 0.235 | 0.227 | 0.255 | 0.346 | 0.456 | 0.338 | 0.321 | 0.753 | 0.811 | 0.955 | 0.778
CAL-12T | 0.971 | 1.07 | 0.986 | 0.922 | 1.21 | 1.48 | 1.16 | 0.993 | 0.728 | 0.592 | 0.665 | 0.527 | 0.385 | 0.53 | 0.536 | 0.366 | 0.844 | 0.808 | 0.908 | 0.741
NCI-H1437 | 1.01 | 1.01 | 0.992 | 0.945 | 1.15 | 1.14 | 1.18 | 1.03 | 0.818 | 0.868 | 0.781 | 0.761 | 0.386 | 0.445 | 0.35 | 0.541 | 0.827 | 0.979 | 0.861 | 0.868
HOP-62 | 1.02 | 0.933 | 1.03 | 0.939 | 1.09 | 0.817 | 1.28 | 0.851 | 0.957 | 0.874 | 1.11 | 0.966 | 0.701 | 0.693 | 0.719 | 0.651 | 0.674 | 0.534 | 0.714 | 0.582
EPLC-272H | 1.01 | 1.15 | 0.9 | 0.906 | 1.32 | 1.08 | 1.26 | 0.988 | 1.3 | 0.851 | 1.04 | 0.716 | 0.44 | 0.406 | 0.403 | 0.387 | 0.265 | 0.534 | 0.409 | 0.523
COR-L 105 | 0.964 | 0.845 | 0.958 | 0.844 | 0.718 | 0.701 | 0.821 | 0.631 | 0.339 | 0.281 | 0.353 | 0.343 | 0.368 | 0.337 | 0.396 | 0.301 | 0.916 | 0.847 | 0.73 | 0.862
HCC-366 | 1.09 | 0.905 | 0.999 | 1.03 | 1.03 | 1.02 | 0.986 | 0.948 | 1.07 | 0.867 | 0.985 | 0.987 | 0.626 | 0.721 | 0.724 | 0.601 | 0.355 | 0.331 | 0.351 | 0.281
NCI-H2009 | 1.05 | 1.03 | 1.01 | 0.951 | 1.16 | 1.2 | 1.18 | 1.02 | 1.02 | 0.929 | 0.695 | 0.872 | 0.316 | 0.305 | 0.33 | 0.3 | 0.752 | 0.733 | 0.746 | 0.699
NCI-H23 | 1.04 | 1.08 | 1.05 | 0.925 | 0.853 | 0.843 | 0.856 | 0.762 | 1.09 | 1.1 | 1.06 | 0.9 | 0.793 | 1.01 | 0.936 | 0.675 | 0.516 | 0.615 | 0.704 | 0.587
NCI-H727 | 0.963 | 0.943 | 0.969 | 1.05 | 0.359 | 0.355 | 0.364 | 0.497 | 0.75 | 0.699 | 0.782 | 0.769 | 0.365 | 0.408 | 0.294 | 0.306 | 1.13 | 1.12 | 1.36 | 1.23
NCI-H1355 | 1 | 1.11 | 0.97 | 0.961 | 0.967 | 0.919 | 0.858 | 0.896 | 1.08 | 0.981 | 0.975 | 0.887 | 0.677 | 0.886 | 0.672 | 0.737 | 0.612 | 0.69 | 0.667 | 0.63
NCI-H1944 | 0.971 | 0.793 | 0.955 | 0.962 | 1.13 | 1.01 | 1.11 | 1.03 | 0.856 | 0.606 | 0.922 | 0.843 | 0.207 | 0.192 | 0.233 | 0.232 | 0.529 | 0.472 | 0.595 | 0.523
